Experimental data taken from patent US8008279B2, “Compound—827” (AstraZeneca AB, priority 2007, dated 2011).

Molecular target: T1, rhuman cathepsin K (Homo sapiens, UniProt P43235)
T1 sequence (P43235 115-329): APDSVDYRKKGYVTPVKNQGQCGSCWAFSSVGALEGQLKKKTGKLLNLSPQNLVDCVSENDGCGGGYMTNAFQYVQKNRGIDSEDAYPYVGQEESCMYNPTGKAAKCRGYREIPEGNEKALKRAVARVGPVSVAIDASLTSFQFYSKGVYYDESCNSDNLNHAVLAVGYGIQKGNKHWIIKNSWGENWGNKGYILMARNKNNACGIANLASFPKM
Assay: Assay for identification of Cathepsin K inhibitors (QFRET, cleavage of Z-Phe-Arg-AMC)
Format: biochemical
Details: 0.5 nM rhuman cathepsin K, Z-Phe-Arg-AMC substrate, 30 min pre-incubation, 1 h incubation at room temperature, mean of two separate occasions; for IC50: read-out: CatK FRET Mean pIC50 (converted)
Description: 0.5 nM [final] rhuman cathepsin K in phosphate buffer was added to a 384-well black microtitre plate containing investigative compounds. The enzyme and compound were pre-incubated at room temperature for 30 minutes before the addition of […] [final] Z-Phe-Arg-AMC synthetic substrate in phosphate buffer. The plates were covered and incubated for 1 h at room temperature, protected from light. Following the incubation the reaction was stopped with 7.5% [final]acetic acid. Relative fluorescence was measured using the Ultra plate reader at a wavelength of 360 nm excitation and 425 nm emission.
Data was corrected for background fluorescence (minimum controls without enzyme).

Compound | IC50 | CatK FRET Mean pIC50
CCOc1cccc2c3c([nH]c12)CCN(C(=O)[C@@H]1CCCC[C@H]1C(=O)NC1(C#N)CC1)C3 [Example 25, (1R,2R)-N-(1-cyanocyclopropyl)-2-[(6-ethoxy-1,3,4,5-tetrahydro-2H-pyrido[4,3-b]indol-2-yl)carbonyl]cyclohexanecarboxamide] | 0.899 nM | 
COC(=O)Cn1c2c(c3ccccc31)CN(C(=O)[C@@H]1CCCC[C@H]1C(=O)NC1(C#N)CC1)CC2 [Example 26, (1R,2R)-N-(1-cyanocyclopropyl)-2-[(5-methoxycarbonylmethyl-1,3,4,5-tetrahydro-2H-pyrido[4,3-b]indol-2-yl)carbonyl]cyclohexanecarboxamide] | 2.85 nM | 
N#CC1(NC(=O)[C@@H]2CCCC[C@H]2C(=O)N2CCc3c(c4ccccc4n3CC3CC3)C2)CC1 [Example 28, (1R,2R)-N-(1-cyanocyclopropyl)-2-[(5-cyclopropylmethyl-1,3,4,5-tetrahydro-2H-pyrido[4,3-b]indol-2-yl)carbonyl]cyclohexanecarboxamide] | 3.45 nM | 
COCCn1c2c(c3ccccc31)CN(C(=O)[C@@H]1CCCC[C@H]1C(=O)NC1(C#N)CC1)CC2 [Example 29, (1R,2R)-N-(1-cyanocyclopropyl)-2-[(5-methoxyethyl-1,3,4,5-tetrahydro-2H-pyrido[4,3-b]indol-2-yl)carbonyl]cyclohexanecarboxamide] | 3.89 nM | 
N#CC1(NC(=O)[C@@H]2CCCC[C@H]2C(=O)N2CCc3[nH]c4c(C(F)(F)F)cccc4c3C2)CC1 [Example 30, (1R,2R)-N-(1-cyanocyclopropyl)-2-{[6-(trifluoromethyl)-1,3,4,5-tetrahydro-2H-pyrido[4,3-b]indol-2-yl]carbonyl}cyclohexanecarboxamide] | 5.5 nM | 
CS(=O)(=O)c1cccc2c3c([nH]c12)CCN(C(=O)[C@@H]1CCCC[C@H]1C(=O)NC1(C#N)CC1)C3 [Example 31, (1R,2R)-N-(1-cyanocyclopropyl)-2-{[6-(methylsulfonyl)-1,3,4,5-tetrahydro-2H-pyrido[4,3-b]indol-2-yl]carbonyl}cyclohexanecarboxamide] | 17.4 nM | 
N#CC1(NC(=O)[C@@H]2CCCC[C@H]2C(=O)N2CCc3[nH]c4c(OCc5ccccc5)cccc4c3C2)CC1 [Example 32, (1R,2R)-2-{[6-(benzyloxy)-1,3,4,5-tetrahydro-2H-pyrido[4,3-b]indol-2-yl]carbonyl}-N-(1-cyanocyclopropyl)cyclohexanecarboxamide] | 1 nM | 
N#CC1(NC(=O)[C@@H]2CCCC[C@H]2C(=O)N2CCc3[nH]c4c(O)cccc4c3C2)CC1 [Example 33, (1R,2R)-N-(1-cyanocyclopropyl)-2-[(6-hydroxy-1,3,4,5-tetrahydro-2H-pyrido[4,3-b]indol-2-yl)carbonyl]cyclohexanecarboxamide] | 1.03 nM | 
CCCOc1cccc2c3c([nH]c12)CCN(C(=O)[C@@H]1CCCC[C@H]1C(=O)NC1(C#N)CC1)C3 [Example 34, (1R,2R)-N-(1-cyanocyclopropyl)-2-[(6-propoxy-1,3,4,5-tetrahydro-2H-pyrido[4,3-b]indol-2-yl)carbonyl]cyclohexanecarboxamide] | 0.486 nM | 
N#CCOc1cccc2c3c([nH]c12)CCN(C(=O)[C@@H]1CCCC[C@H]1C(=O)NC1(C#N)CC1)C3 [Example 35, (1R,2R)-N-(1-cyanocyclopropyl)-2-{[6-(cyanomethoxy)-1,3,4,5-tetrahydro-2H-pyrido[4,3-b]indol-2-yl]carbonyl}cyclohexanecarboxamide] | 0.558 nM | 
CN(C)CCOc1cccc2c3c([nH]c12)CCN(C(=O)[C@@H]1CCCC[C@H]1C(=O)NC1(C#N)CC1)C3 [Example 36, (1R,2R)-N-(1-cyanocyclopropyl)-2-(6-(2-(dimethylamino)ethoxy)-2,3,4,5-tetrahydro-1H-pyrido[4,3-b]indole-2-carbonyl)cyclohexanecarboxamide] | 0.324 nM | 
N#CC1(NC(=O)[C@@H]2CCCC[C@H]2C(=O)N2CCc3[nH]c4c(OCCN5CCOCC5)cccc4c3C2)CC1 [Example 37, (1R,2R)-N-(1-cyanocyclopropyl)-2-(6-(2-morpholinoethoxy)-2,3,4,5-tetrahydro-1H-pyrido[4,3-b]indole-2-carbonyl)cyclohexanecarboxamide] | 3.2 nM | 
N#CC1(NC(=O)[C@@H]2CCCC[C@H]2C(=O)N2CCc3[nH]c4c(OCCN5CCCC5)cccc4c3C2)CC1 [Example 38, (1R,2R)-N-(1-cyanocyclopropyl)-2-(6-(2-(pyrrolidin-1-yl)ethoxy)-2,3,4,5-tetrahydro-1H-pyrido[4,3-b]indole-2-carbonyl)cyclohexanecarboxamide] | 1.64 nM | 
N#CC1(NC(=O)[C@@H]2CCCC[C@H]2C(=O)N2CCc3[nH]c4c(OCCN5CCCCC5)cccc4c3C2)CC1 [Example 39, (1R,2R)-N-(1-cyanocyclopropyl)-2-(6-(2-(piperidin-1-yl)ethoxy)-2,3,4,5-tetrahydro-1H-pyrido[4,3-b]indole-2-carbonyl)cyclohexanecarboxamide] | 0.728 nM | 
CS(=O)(=O)n1c2c(c3ccccc31)CN(C(=O)[C@@H]1CCCC[C@H]1C(=O)NC1(C#N)CC1)CC2 [Example 40, (1R,2R)-N-(1-cyanocyclopropyl)-2-[(5-methanesulphonyl-1,3,4,5-tetrahydro-2H-pyrido[4,3-b]indol-2-yl)carbonyl]cyclohexanecarboxamide] | 10.8 nM | 
N#CC1(NC(=O)[C@@H]2CCCC[C@H]2C(=O)N2CCc3oc4ncccc4c3C2)CC1 [Example 41, (1R,2R)-2-(7,8-Dihydro-5H-furo[2,3-b:4,5-c′]dipyridine-6-carbonyl)-cyclohexanecarboxylic acid (1-cyano-cyclopropyl)-amide] | 6.44 nM | 
N#CC1(NC(=O)[C@@H]2CCCC[C@H]2C(=O)N2CCc3[nH]c4c5c(ccc4c3C2)OC(F)(F)O5)CC1 [Example 44, (1R,2R)-N-(1-cyanocyclopropyl)-2-(2,2-difluoro-7,8,9,10-tetrahydro-6H-[1,3]dioxolo[4,5-g]pyrido[4,3-b]indole-7-carbonyl)cyclohexanecarboxamide] | 2.13 nM | 
COc1cc(F)cc2c3c([nH]c12)CCN(C(=O)[C@@H]1CCCC[C@H]1C(=O)NC1(C#N)CC1)C3 [Example 45, (1R,2R)-N-(1-cyanocyclopropyl)-2-(8-fluoro-6-methoxy-2,3,4,5-tetrahydro-1H-pyrido[4,3-b]indole-2-carbonyl)cyclohexanecarboxamide] | 0.807 nM | 
(1R,2R)-N-(1-cyanocyclopropyl)-2-[(6-methyl-1,3,4,5-tetrahydro-2H-pyrido[4,3-b]indol-2-yl)carbonyl]cyclohexanecarboxamide [Example 6] |  | 8.553
